For six compounds, EC50 and EC90 results are on record in patent US20060194805A1, “Capsaicin receptor agonists” (Neurogen Corporation, priority 2003, published 2006).

The structures appear in SMILES notation.

T1 sequence (Q8NER1 whole entry): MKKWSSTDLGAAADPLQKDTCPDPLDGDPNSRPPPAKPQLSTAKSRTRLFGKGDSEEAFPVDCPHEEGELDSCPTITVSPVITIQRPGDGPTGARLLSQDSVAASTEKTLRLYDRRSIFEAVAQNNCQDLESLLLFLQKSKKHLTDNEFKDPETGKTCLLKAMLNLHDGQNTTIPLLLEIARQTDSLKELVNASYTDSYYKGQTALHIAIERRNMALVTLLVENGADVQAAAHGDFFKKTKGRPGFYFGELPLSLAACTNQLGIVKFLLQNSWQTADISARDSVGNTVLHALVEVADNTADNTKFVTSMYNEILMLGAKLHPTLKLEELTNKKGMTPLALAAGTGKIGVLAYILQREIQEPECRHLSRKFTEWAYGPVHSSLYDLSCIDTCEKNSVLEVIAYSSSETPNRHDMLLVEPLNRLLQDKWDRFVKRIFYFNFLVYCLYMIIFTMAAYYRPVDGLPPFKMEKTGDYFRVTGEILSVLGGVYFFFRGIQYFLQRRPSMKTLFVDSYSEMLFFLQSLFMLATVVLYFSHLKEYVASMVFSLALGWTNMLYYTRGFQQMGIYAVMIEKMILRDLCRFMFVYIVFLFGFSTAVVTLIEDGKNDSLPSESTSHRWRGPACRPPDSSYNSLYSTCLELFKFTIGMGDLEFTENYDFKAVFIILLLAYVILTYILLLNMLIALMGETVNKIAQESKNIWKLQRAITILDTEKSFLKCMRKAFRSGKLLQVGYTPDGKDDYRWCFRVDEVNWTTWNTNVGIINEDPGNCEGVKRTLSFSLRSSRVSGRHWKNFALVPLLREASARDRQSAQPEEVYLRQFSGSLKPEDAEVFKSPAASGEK

One experiment addresses T1, human capsaicin receptor (Homo sapiens, UniProt Q8NER1).
T1 construct: transfected with the pBK-CMV expression construct encoding the full length human capsaicin receptor; expressed in transfected cells
Nature of the experiment: Calcium mobilization assay (determination of agonist activity), Example 7. The format is cell-based. To be noted: HEK293 cells expressing human capsaicin receptor, FLUO-3 calcium fluorescence; read-out: EC50, capsaicin receptor agonist activity as described in Example 7. From the text:
A cDNA encoding full length human capsaicin receptor (SEQ ID NO:1, 2 or 3 of U.S. Pat. No. 6,482,611) was subcloned in the plasmid pBK-CMV (Stratagene, La Jolla, Calif.) for recombinant expression in mammalian cells.
Human embryonic kidney (HEK293) cells were transfected with the pBK-CMV expression construct encoding the full length human capsaicin receptor using standard methods. […] Independent clones were isolated from this pool by limiting dilution to obtain clonal stable cell lines for use in subsequent experiments.
The culture medium is emptied from the 96 well plates and FLUO-3 AM calcium sensitive dye (Molecular Probes, Eugene, Oreg.) is added to each well (dye solution: 1 mg FLUO-3 AM, 440 μL DMSO and 440 μl 20% pluronic acid in DMSO, diluted 1:250 in Krebs-Ringer HEPES (KRH) buffer (25 mM HEPES, 5 mM KCl, 0.96 mM NaH2PO4, 1 mM MgSO4, 2 mM CaCl2, 5 mM glucose, 1 mM probenecid, pH 7.4), 50 μl diluted solution per well). Plates are covered with aluminum foil and incubated at 37° C. for 1-2 hours in an environment containing 5% CO2.
To measure the ability of a test compound to agonize or antagonize a calcium mobilization response in cells expressing capsaicin receptors to capsaicin or other vanilloid agonist, the EC50 of the agonist capsaicin is first determined. An additional 20 μl of KRH buffer and 1 μl DMSO is added to each well of cells, prepared as described above. 100 μl capsaicin in KRH buffer is automatically transferred by the FLIPR instrument to each well. Capsaicin-induced calcium mobilization is monitored using either FLUOROSKAN ASCENT (Labsystems; Franklin, Mass.) or FLIPR (fluorometric imaging plate reader system; Molecular Devices, Sunnyvale, Calif.) instruments. Data obtained between 30 and 60 seconds after agonist application are used to generate an 8-point concentration response curve, with final capsaicin concentrations of 1 nM to 3 μM. […] software (Synergy Software, Reading, Pa.) is used to fit the data to the equation: y=a*(1/(1+(b/x)c)) to determine the 50% excitatory concentration (EC50) for the response. In this equation, y is the maximum fluorescence signal, x is the concentration of the agonist or antagonist (in this case, capsaicin), a is the Emax, b corresponds to the EC50 value and c is the Hill coefficient. Determination of Agonist Activity
Test compounds are dissolved in DMSO, diluted in KRH buffer, and immediately added to cells prepared as described above. […] The final concentration of test compounds in the assay wells is between 0.1 nM and 5 μM.
The ability of a test compound to act as an agonist of the capsaicin receptor is determined by measuring the fluorescence response of cells expressing capsaicin receptors elicited by the compound as function of compound concentration.
In general terms: A change in cytosolic calcium serves as a functional read-out for many receptors and channels.
For orientation: EC50 means the midpoint of the concentration-response curve. Take `FC(F)(F)c1ccc(Nc2ncnc3cc(Br)ccc23)nc1` [Compound 1, (7-bromo-quinazolin-4-yl)-(5-trifluoromethyl-pyridin-2-yl)-amine]: the concentration for a half-maximal effect (EC50) was < 1000 nM.

Turning to `CC(C)(C)c1cc(Nc2ncnc3cc(Br)cnc23)no1` [Compound 2], the concentration giving a half-maximal response (EC50) was < 1000 nM.

As for `C[C@@H]1CN(Cc2nc(Nc3ccc(C(C)(C)C)cc3)c3ccc(C(F)(F)F)cc3n2)C[C@H](C)O1` [Compound 3, (4-t-butyl-phenyl)-[2-(cis-2,6-dimethyl-morpholin-4-ylmethyl)-7-trifluoromethyl-quinazolin-4-yl)-amine], the EC50 was < 1000 nM.

For the compound `CCCn1c(CN(Cc2ccc(Cl)cc2Cl)Cc2c(OCC)ccc3ccccc23)nc2cc(F)ccc21` [Compound 55], the EC50 was < 1000 nM.

As for `O=C(NCc1ccccc1)c1cc(-c2cccc(Cl)c2)nc2ccncc12` [Compound 65, 2-(3-chloro-phenyl)-[1, 6]-naphthyridine-4-carboxylic acid benzylamide], the EC50 is < 1000 nM.

The same experiment, now with this note: capsaicin positive control, calcium mobilization; read-out: approximate EC90 concentration.
Turning to `COc1cc(CNC(=O)CCCC/C=C/C(C)C)ccc1O` [capsaicin], the EC90 is ~100 nM.
